Test results: PubChem BioAssay AID1918996 (Molecular Pharmacology Branch, DTP, NCI, 2023)

System: 349418-098-R-PDC complex spheroid growth
Assay: Anticancer human tumor 349418-098-R-PDC patient-derived lung adenocarcinoma cell line growth inhibition [AhR]
Conditions: for IC50: curve of first compound; for viability, T/C: stronger effect = lower value
Method in brief: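 Spheroids combined tumor cells with HUVEC endothelial cells and human MSCs as stroma. AhR antagonists were paired with standard or investigational drugs, each dosed in half-log steps down from near clinical Cmax, or from 10 microM where Cmax was unknown.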

[1] = second compound 0.1 µM, first compound 0.0316 µM
[2] = second compound 0.1 µM, first compound 0.1 µM
[3] = second compound 0.1 µM, first compound 0.316 µM
[4] = second compound 0.1 µM, first compound 1 µM
[5] = second compound 0.1 µM, first compound 3.16 µM
[6] = second compound 0.1 µM, first compound 10 µM
[7] = second compound 0.316 µM, first compound 0.0316 µM
[8] = second compound 0.316 µM, first compound 0.1 µM
[9] = second compound 0.316 µM, first compound 0.316 µM
[10] = second compound 0.316 µM, first compound 1 µM
[11] = second compound 0.316 µM, first compound 3.16 µM
[12] = second compound 0.316 µM, first compound 10 µM
[13] = second compound 1 µM, first compound 0.0316 µM
[14] = second compound 1 µM, first compound 0.1 µM
[15] = second compound 1 µM, first compound 0.316 µM
[16] = second compound 1 µM, first compound 1 µM
[17] = second compound 1 µM, first compound 3.16 µM
[18] = second compound 1 µM, first compound 10 µM
[19] = second compound 3.16 µM, first compound 0.0316 µM
[20] = second compound 3.16 µM, first compound 0.1 µM
[21] = second compound 3.16 µM, first compound 0.316 µM
[22] = second compound 3.16 µM, first compound 1 µM
[23] = second compound 3.16 µM, first compound 3.16 µM
[24] = second compound 3.16 µM, first compound 10 µM
[25] = second compound 10 µM, first compound 0.0316 µM
[26] = second compound 10 µM, first compound 0.1 µM
[27] = second compound 10 µM, first compound 0.316 µM
[28] = second compound 10 µM, first compound 1 µM
[29] = second compound 10 µM, first compound 3.16 µM
[30] = second compound 10 µM, first compound 10 µM
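Also: spheroids exposed to agents for seven days before luminescence viability read.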

For CC(C)CC(NC(=O)C(Cc1ccccc1)NC(=O)c1cnccn1)B(O)O (stereo not given) + Cc1ccccc1N=Nc1ccc(NC(=O)c2ccnn2C)c(C)c1, the IC50 (second compound 0.1 µM) was less than 0.949 nM, the IC50 (second compound 0.316 µM) was less than 0.949 nM and the IC50 (second compound 1 µM) was 1.18 nM. For the same compound, the IC50 (second compound 3.16 µM) was 1.06 nM, the IC50 (second compound 10 µM) was less than 0.949 nM and the viability, T/C (second compound 0.1 µM, first compound 0.000949 µM) was 46.8%. It also gave a viability, T/C (second compound 0.1 µM, first compound 0.003 µM) of 11.1%, a viability, T/C (second compound 0.1 µM, first compound 0.00949 µM) of 3.13% and a viability, T/C (second compound 0.1 µM, first compound 0.03 µM) of 1.55%. For the same compound, the viability, T/C (second compound 0.1 µM, first compound 0.0949 µM) was 1.77%, the viability, T/C (second compound 0.1 µM, first compound 0.3 µM) was 0.98% and the viability, T/C (second compound 0.316 µM, first compound 0.000949 µM) was 48.2%. The viability, T/C (second compound 0.316 µM, first compound 0.003 µM) was 11.7%, the viability, T/C (second compound 0.316 µM, first compound 0.00949 µM) was 2.73% and the viability, T/C (second compound 0.316 µM, first compound 0.03 µM) was 1.61%. It also gave a viability, T/C (second compound 0.316 µM, first compound 0.0949 µM) of 1.03%, a viability, T/C (second compound 0.316 µM, first compound 0.3 µM) of 1.37% and a viability, T/C (second compound 1 µM, first compound 0.000949 µM) of 58.5%. It also gave a viability, T/C (second compound 1 µM, first compound 0.003 µM) of 13.4%, a viability, T/C (second compound 1 µM, first compound 0.00949 µM) of 2.69% and a viability, T/C (second compound 1 µM, first compound 0.03 µM) of 1.87%. The viability, T/C (second compound 1 µM, first compound 0.0949 µM) was 1.39%, the viability, T/C (second compound 1 µM, first compound 0.3 µM) was 1.15% and the viability, T/C (second compound 3.16 µM, first compound 0.000949 µM) was 53.7%. For the same compound, the viability, T/C (second compound 3.16 µM, first compound 0.003 µM) was 14%, the viability, T/C (second compound 3.16 µM, first compound 0.00949 µM) was 2.77% and the viability, T/C (second compound 3.16 µM, first compound 0.03 µM) was 1.76%. For the same compound, the viability, T/C (second compound 3.16 µM, first compound 0.0949 µM) was 1.72%, the viability, T/C (second compound 3.16 µM, first compound 0.3 µM) was 1.32% and the viability, T/C (second compound 10 µM, first compound 0.000949 µM) was 41.6%. For the same compound, the viability, T/C (second compound 10 µM, first compound 0.003 µM) was 14.5%, the viability, T/C (second compound 10 µM, first compound 0.00949 µM) was 2.75% and the viability, T/C (second compound 10 µM, first compound 0.03 µM) was 1.8%. For the same compound, the viability, T/C (second compound 10 µM, first compound 0.0949 µM) was 1.43% and the viability, T/C (second compound 10 µM, first compound 0.3 µM) was 1.45%.
COc1cc(Nc2ncc3c(n2)-c2ccc(Cl)cc2C(c2c(F)cccc2OC)=NC3)ccc1C(=O)O + Cc1ccccc1N=Nc1ccc(NC(=O)c2ccnn2C)c(C)c1 gave an IC50 (second compound 0.1 µM) of 105 nM, an IC50 (second compound 0.316 µM) of 157 nM and an IC50 (second compound 1 µM) of 65.7 nM. For the same compound, the IC50 (second compound 3.16 µM) was less than 31.6 nM, the IC50 (second compound 10 µM) was less than 31.6 nM and the viability, T/C [1] was 70.5%. It also gave a viability, T/C [2] of 50.9%, a viability, T/C [3] of 30.5% and a viability, T/C [4] of 30.8%. The viability, T/C [5] was 33.5%, the viability, T/C [6] was 31.1% and the viability, T/C [7] was 64.8%. For the same compound, the viability, T/C [8] was 63%, the viability, T/C [9] was 29.8% and the viability, T/C [10] was 28.5%. It also gave a viability, T/C [11] of 23.4%, a viability, T/C [12] of 26% and a viability, T/C [13] of 71.8%. The viability, T/C [14] was 36.6%, the viability, T/C [15] was 34.4% and the viability, T/C [16] was 32.3%. For the same compound, the viability, T/C [17] was 30.5%, the viability, T/C [18] was 26.5% and the viability, T/C [19] was 48.7%. It also gave a viability, T/C [20] of 38.1%, a viability, T/C [21] of 32.2% and a viability, T/C [22] of 27.1%. The viability, T/C [23] was 26.8%, the viability, T/C [24] was 26.6% and the viability, T/C [25] was 38.9%. The viability, T/C [26] was 29.7%, the viability, T/C [27] was 32.2% and the viability, T/C [28] was 27.1%. For the same compound, the viability, T/C [29] was 23.6% and the viability, T/C [30] was 27.1%.
In the case of NS(=O)(=O)OCC1CC(n2ccc3c(NC4CCc5ccccc54)ncnc32)CC1O (stereo not given) + Cc1ccccc1N=Nc1ccc(NC(=O)c2ccnn2C)c(C)c1, the IC50 (second compound 0.1 µM) is reported as 287 nM, the IC50 (second compound 0.316 µM) is reported as 196 nM and the IC50 (second compound 1 µM) is reported as 221 nM. It also gave an IC50 (second compound 3.16 µM) of 131 nM, an IC50 (second compound 10 µM) of 63.7 nM and a viability, T/C [1] of 96.6%. For the same compound, the viability, T/C [2] was 81.3%, the viability, T/C [3] was 46.1% and the viability, T/C [4] was 22.6%. For the same compound, the viability, T/C [5] was 11.4%, the viability, T/C [6] was 10.5% and the viability, T/C [7] was 75%. The viability, T/C [8] was 63.8%, the viability, T/C [9] was 39.2% and the viability, T/C [10] was 24.9%. For the same compound, the viability, T/C [11] was 11.8%, the viability, T/C [12] was 10.2% and the viability, T/C [13] was 90.4%. It also gave a viability, T/C [14] of 71.1%, a viability, T/C [15] of 39% and a viability, T/C [16] of 23.5%. For the same compound, the viability, T/C [17] was 12%, the viability, T/C [18] was 10.1% and the viability, T/C [19] was 68.5%. It also gave a viability, T/C [20] of 58.1%, a viability, T/C [21] of 26.3% and a viability, T/C [22] of 20.2%. For the same compound, the viability, T/C [23] was 11.9%, the viability, T/C [24] was 9.47% and the viability, T/C [25] was 65.3%. The viability, T/C [26] was 38.9%, the viability, T/C [27] was 27.1% and the viability, T/C [28] was 18%. It also gave a viability, T/C [29] of 10.8% and a viability, T/C [30] of 9.27%.
O=C(C=Cc1cccc(S(=O)(=O)Nc2ccccc2)c1)NO + Cc1ccccc1N=Nc1ccc(NC(=O)c2ccnn2C)c(C)c1 gave an IC50 (second compound 0.1 µM) of 772 nM, an IC50 (second compound 0.316 µM) of 706 nM and an IC50 (second compound 1 µM) of 597 nM. The IC50 (second compound 3.16 µM) was 671 nM, the IC50 (second compound 10 µM) was 331 nM and the viability, T/C [1] was 132%. The viability, T/C [2] was 119%, the viability, T/C [3] was 73% and the viability, T/C [4] was 47.6%. It also gave a viability, T/C [5] of 10.4%, a viability, T/C [6] of 1.93% and a viability, T/C [7] of 126%. For the same compound, the viability, T/C [8] was 108%, the viability, T/C [9] was 82.8% and the viability, T/C [10] was 36.1%. For the same compound, the viability, T/C [11] was 8.81%, the viability, T/C [12] was 1.91% and the viability, T/C [13] was 109%. For the same compound, the viability, T/C [14] was 122%, the viability, T/C [15] was 69.3% and the viability, T/C [16] was 33.3%. For the same compound, the viability, T/C [17] was 8.25%, the viability, T/C [18] was 2.09% and the viability, T/C [19] was 94%. The viability, T/C [20] was 94.1%, the viability, T/C [21] was 78.3% and the viability, T/C [22] was 34.7%. For the same compound, the viability, T/C [23] was 8.53%, the viability, T/C [24] was 2.35% and the viability, T/C [25] was 74.7%. The viability, T/C [26] was 72.5%, the viability, T/C [27] was 50% and the viability, T/C [28] was 22.9%. For the same compound, the viability, T/C [29] was 8.56% and the viability, T/C [30] was 2.05%.
